Data: ChEMBL document CHEMBL3046872, “Management of Macrophomina wilt in melons using grafting or fungicide soil application: Pathological, horticultural and economical aspects” (2012)

Assays:
Assay type in all cases: functional
Macrophomina phaseolina [1] = experiment: Fungicidal activity against Macrophomina phaseolina assessed as mycelial growth inhibition incubated at 27 degC for 5 days; details: 120 h
Macrophomina phaseolina [2] = experiment: (§1) Fungicidal activity against Macrophomina phaseolina in non-grafted Melon plants cv. 6405 plots assessed as disease incidence exposed to compound at 350 ml/1000 m2 of commercial product applied as soil drench three times during growing season (reference value: 65%)
Macrophomina phaseolina [3] = experiment: as §1, with “plots infested with Macrophomina phaseolina” for “plots”, “250” for “350”, “to crown zone 2” for “three”, “season 44 to 56 days after seeding” for “season”, “45%)” for “65%)”
Macrophomina phaseolina [4] = experiment: as §1, with “plots infested with Macrophomina phaseolina” for “plots”, “250” for “350”, “drench to crown zone” for “drench”, “season 21 to 49 days after transplanting” for “season”, “23%)” for “65%)”
Macrophomina phaseolina [5] = experiment: (§2) Fungicidal activity against Macrophomina phaseolina in non-grafted Melon plants cv. 6405 plots infested with Macrophomina phaseolina assessed as disease incidence exposed to compound at 250 ml/1000 m2 of commercial product applied as soil drench to crown zone 1 time during growing season 44 to 56 days after seeding (reference value: 45%)
Macrophomina phaseolina [6] = experiment: Fungicidal activity against Macrophomina phaseolina in non-grafted Melon plants cv. 6405 plots assessed as disease incidence exposed to compound at 200 ml/1000 m2 of commercial product applied as soil drench three times during growing season (reference value: 65%)
Macrophomina phaseolina [7] = experiment: Fungicidal activity against Macrophomina phaseolina in non-grafted Melon plants cv. 6405 plots assessed as disease incidence exposed to compound at 300 ml/1000 m2 of commercial product applied as soil drench three times during growing season (reference value: 65%)
Macrophomina phaseolina [8] = experiment: Fungicidal activity against Macrophomina phaseolina in non-grafted Melon plants cv. 6405 plots assessed as disease incidence exposed to compound at 250 ml/1000 m2 of commercial product applied as soil drench three times during growing season (reference value: 65%)
Macrophomina phaseolina [9] = experiment: as §2, with “40” for “250”, “2 times” for “1 time”
Macrophomina phaseolina [10] = experiment: as §2, with “40” for “250”, “three times” for “1 time”, “21” for “44”, “49” for “56”, “transplanting” for “seeding”, “23%)” for “45%)”
Macrophomina phaseolina [11] = experiment: Fungicidal activity against Macrophomina phaseolina in non-grafted Melon plants cv. 6405 plots assessed as disease incidence exposed to compound at 100 ml/1000 m2 of commercial product applied as soil drench three times during growing season (reference value: 65%)

O=[N+]([O-])c1cc(C(F)(F)F)c(Cl)c([N+](=O)[O-])c1Nc1ncc(C(F)(F)F)cc1Cl [FLUAZINAM]
ED50 (Macrophomina phaseolina [1]): < 0.01 mg/kg

CCCOC(=O)NCCCN(C)C.Cl [PROPAMOCARB HYDROCHLORIDE]
ED50 (Macrophomina phaseolina [1]): 0.9 mg/kg | Activity (Macrophomina phaseolina [2]): 30%

CO/C=C(/C(=O)OC)c1ccccc1Oc1cc(Oc2ccccc2C#N)ncn1 [AZOXYSTROBIN]
Activity (Macrophomina phaseolina [3]): 5% | Activity (Macrophomina phaseolina [4]): 3% | Activity (Macrophomina phaseolina [5]): 15% | ED50 (Macrophomina phaseolina [1]): 0.38 mg/kg | Activity (Macrophomina phaseolina [6]): 5%

FC(F)C(F)(F)OCC(Cn1cncn1)c1ccc(Cl)cc1Cl (configuration not stated) [TETRACONAZOLE]
Activity (Macrophomina phaseolina [7]): 15% | ED50 (Macrophomina phaseolina [1]): 2.96 mg/kg

CC(C)NC(=O)N1CC(=O)N(c2cc(Cl)cc(Cl)c2)C1=O [IPRODIONE]
ED50 (Macrophomina phaseolina [1]): 0.03 mg/kg | Activity (Macrophomina phaseolina [6]): 35%

O=CNC(N1CCN(C(NC=O)C(Cl)(Cl)Cl)CC1)C(Cl)(Cl)Cl (configuration not stated) [TRIFORINE]
Activity (Macrophomina phaseolina [8]): 25% | ED50 (Macrophomina phaseolina [1]): 1 mg/kg

COCC(=O)N(c1c(C)cccc1C)[C@H](C)C(=O)OC [MEFENOXAM]
Activity (Macrophomina phaseolina [7]): 10% | Activity (Macrophomina phaseolina [9]): 50% | ED50 (Macrophomina phaseolina [1]): > 10 mg/kg | Activity (Macrophomina phaseolina [10]): 10%

OC(Cn1cncn1)(c1ccc(F)cc1)c1ccccc1F (configuration not stated) [FLUTRIAFOL]
Activity (Macrophomina phaseolina [8]): 50% | ED50 (Macrophomina phaseolina [1]): 13.1 mg/kg

O=C(Cc1ccccc1)N/C(=N\OCC1CC1)c1c(C(F)(F)F)ccc(F)c1F [CYFLUFENAMID]
Activity (Macrophomina phaseolina [11]): 60% | ED50 (Macrophomina phaseolina [1]): < 0.01 mg/kg

N#Cc1c(Cl)c(Cl)c(Cl)c(C#N)c1Cl [CHLOROTHALONIL]
ED50 (Macrophomina phaseolina [1]): 0.61 mg/kg

CCCCC(C#N)(Cn1cncn1)c1ccc(Cl)cc1 (configuration not stated) [MYCLOBUTANIL]
ED50 (Macrophomina phaseolina [1]): 0.26 mg/kg | Activity (Macrophomina phaseolina [6]): 45%

CCCN(CCOc1c(Cl)cc(Cl)cc1Cl)C(=O)n1ccnc1 [PROCHLORAZ]
Activity (Macrophomina phaseolina [8]): 35% | ED50 (Macrophomina phaseolina [1]): 0.04 mg/kg
